Legend:
[1] = Tablet hardness (Schleuniger hardness meter); format: physicochemical; settings: phenacetin granules
[2] = Proportion of particles of 75 μm or more (Air Jet Sieve); format: physicochemical; settings: excipient powder
Procedure: Five grams of trehalose was weighed onto a screen having a screen opening of 75 μm, and sifted with Air Jet Sieve (Model 200LS, mfd. by ALPINE) for 5 minutes, and the weight percentage of the weight of particles remaining on the screen based on the total weight of particles was calculated as the proportion of particles of 75 μm or more.

[3] = Whiteness of powder (color analyzer); format: physicochemical; settings: excipient powder
Procedure: For powder of trehalose or a pharmaceutical composition containing trehalose, values of L, a and b were measured with a color analyzer (TC-1800MKII, mfd. by Tokyo Denshoku Co., Ltd.), and the whiteness of the trehalose or pharmaceutical composition was calculated by the following equation: […]

[4] = Dissolution test (13th revised Japanese Pharmacopoeia) of phenacetin granules; format: physicochemical
Procedure: The wet granules obtained in Example 6 were subjected to a dissolution test according to the dissolution test prescribed in the 13th revised Japanese Pharmacopoeia. The first liquid listed in the Japanese Pharmacopoeia was used as a test liquid, and the drug dissolution rate after 5 minutes was measured. The dissolution rate was calculated by taking the total amount of the drug contained in the granules as 100%. […] In the case of the trehaloses J and K, the dissolution rate after 5 minutes was as very high as 80%.
The granules prepared from each of lactose and Mannit P in Comparative Example 4 were subjected to a dissolution test according to the dissolution test prescribed in the 13th revised Japanese Pharmacopoeia. The first liquid listed in the Japanese Pharmacopoeia was used as a test liquid, and the drug dissolution rate after 5 minutes was measured. The drug dissolution rate was calculated by taking the total amount of the drug contained in the granules as 100%. […] In the case of lactose and Mannit P, the dissolution rate after 5 minutes was lower than in the case of trehaloses J and K.

[5] = Average particle size (sieving, 50% cumulative weight); format: physicochemical; settings: excipient powder
Procedure: Five grams of trehalose was sifted through screens having screen openings of 500 μm, 300 μm and 250 μm, respectively, and then sifted with Air Jet Sieve by using screens having screen openings of 150 μm, 75 μm, 45 μm, 38 μm and 32 μm, respectively. The oversize particle weight percentage [%] was calculated for each screen, and the average particle size is expressed as a particle size corresponding to a cumulative weight percentage of 50%.

[6] = Angle of repose (Sugiwara's instrument); format: physicochemical; settings: excipient powder
Excerpt: Measured by means of a Sugiwara's instrument for measuring angle of repose (Yakuzaigaku 27, p. 260, 1965).

Apparent specific volume = format: physicochemical; settings: excipient powder
Excerpt: The whole of 10 g of trehalose powder was gently poured into a 100-ml measuring cylinder without making an impact (in this case, a cylinder having an outside diameter smaller than the inside diameter of the measuring cylinder was placed in the measuring cylinder, and it was slowly lifted after pouring the trehalose), and the apparent specific volume was expressed as a value obtained by dividing the read volume by the weight of the trehalose.

[7] = Wet granulation of phenacetin mixture with HPC binder solution: granule size and yield
[8] = phenacetin granules, binding solution 180 g
[9] = phenacetin granules, binding solution 240 g
[10] = phenacetin 50/excipient 30/corn starch 10/microcrystalline cellulose 10, binding solution 100 g
[11] = phenacetin granules, binding solution 120 g
[12] = phenacetin granules, binding solution 160 g

Tablet hardness at a compression pressure of 1000 kg/cm^2 ([1]; binding solution 180 g) [kgf]	Tablet hardness at a compression pressure of 1000 kg/cm^2 ([1]; binding solution 240 g) [kgf]	Proportion of particles of 75 μm or more [2] [%]	Whiteness [3] [%]	Average particle size [5] [μm]	Angle of repose [6] [°]	Apparent specific volume (Apparent specific volume) [cm^3/g]	Average particle size of granules [7, 8] [μm]	Average particle size of granules [7, 9] [μm]	Tablet hardness at a compression pressure of 1000 kg/cm^2 ([1]; binding solution 100 g) [kgf]	Average particle size of granules [7, 10] [μm]	Average particle size of granules [7, 11] [μm]	Average particle size of granules [7, 12] [μm]	SMILES	further results
3.9	3.1	20	96	47	45	2.1	106	313					OC[C@@H](O)[C@@H](O)[C@H](O)[C@H](O)CO [Mannit P, reference compound]	Tablet hardness at a compression pressure of 1000 kg/cm^2 ([1]; binding solution 200 g): 3.0 kgf; Drug dissolution rate after 5 min. ([4]; binding solution 200, first liquid of Japanese Pharmacopoeia): 70%; Average particle size of granules ([7]; phenacetin granules, binding solution 200 g): 144 μm
		40	96	60	41	2.0			5.1	110	130	270	OC[C@H]1O[C@H](O[C@H]2O[C@H](CO)[C@@H](O)[C@H](O)[C@H]2O)[C@H](O)[C@@H](O)[C@@H]1O [Trehalose J, trehalose]	Tablet hardness at a compression pressure of 1000 kg/cm^2 ([1]; binding solution 120 g, listed as J): 4.7 kgf; Tablet hardness at a compression pressure of 1000 kg/cm^2 ([1]; binding solution 160 g): 3.0 kgf; Drug dissolution rate after 5 min. ([4]; binding solution 120, first liquid of Japanese Pharmacopoeia): 80%; Average particle size of granules ([7]; phenacetin granules, binding solution 120 g, listed as J): 130 μm
		21	97	50	42	2.1			5.0	120	140	180	OC[C@H]1O[C@H](O[C@H]2O[C@H](CO)[C@@H](O)[C@H](O)[C@H]2O)[C@H](O)[C@@H](O)[C@@H]1O [Trehalose K, trehalose]	Tablet hardness at a compression pressure of 1000 kg/cm^2 ([1]; binding solution 120 g): 4.5 kgf; Tablet hardness at a compression pressure of 1000 kg/cm^2 ([1]; binding solution 160 g, listed as K): 2.9 kgf; Drug dissolution rate after 5 min. ([4]; binding solution 160, first liquid of Japanese Pharmacopoeia): 80%; Average particle size of granules ([7]; phenacetin granules, binding solution 160 g, listed as K): 180 μm
2.5	3.7	15	95	60	45	2.1	91	220					OC[C@H]1O[C@@H](O[C@H]2[C@H](O)[C@@H](O)C(O)O[C@@H]2CO)[C@H](O)[C@@H](O)[C@H]1O (some centres unmarked) [200M lactose, lactose, reference compound]	Tablet hardness at a compression pressure of 1000 kg/cm^2 ([1]; binding solution 220 g): 3.0 kgf; Drug dissolution rate after 5 min. ([4]; binding solution 240, first liquid of Japanese Pharmacopoeia): 60%; Average particle size of granules ([7]; phenacetin granules, binding solution 220 g): 150 μm
